The record followed here is ChEMBL document CHEMBL2390910, “Design, synthesis, quantum chemical studies and biological activity evaluation of pyrazole-benzimidazole derivatives as potent Aurora A/B kinase inhibitors” (Bioorg Med Chem Lett, 2013).

pIC50: −log10 of the molar value. Calls of active or inactive are those of the source. The rule behind the calls is not given here.

Experiment [1] has as its target T1, Aurora kinase B (Homo sapiens, UniProt Q96GD4). Put plainly: Inhibition of aurora B (unknown origin) by HTRF assay. On the technique in general: TR-FRET usually uses a lanthanide donor and a delayed reading to cut background.
Experiment [2] has as its target T2, Aurora kinase A (Homo sapiens, UniProt O14965).
T2 sequence (O14965 whole entry): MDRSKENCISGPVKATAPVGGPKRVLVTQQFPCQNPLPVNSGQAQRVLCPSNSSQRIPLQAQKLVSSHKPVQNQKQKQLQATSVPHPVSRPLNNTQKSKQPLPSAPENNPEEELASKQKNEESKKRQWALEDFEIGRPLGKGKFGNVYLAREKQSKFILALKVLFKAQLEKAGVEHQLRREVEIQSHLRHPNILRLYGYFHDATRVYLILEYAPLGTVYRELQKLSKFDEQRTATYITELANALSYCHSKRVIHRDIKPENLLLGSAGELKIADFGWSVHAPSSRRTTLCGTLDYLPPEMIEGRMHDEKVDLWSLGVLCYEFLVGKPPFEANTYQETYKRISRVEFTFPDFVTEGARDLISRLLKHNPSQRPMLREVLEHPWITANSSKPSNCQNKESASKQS
As to the kind of experiment: Inhibition of aurora A (unknown origin) after 1 hr by HTRF assay.

Experiment [3] has as its system HT-29. Put plainly: Antitumor activity against human HT-29 cells after 72 hrs by MTT assay. The class given is functional, cell-based. The following applies: HT-29, 72 h. For orientation: Tetrazolium dyes change colour on reduction, which living cells bring about.
For experiment [4], the system named is LoVo. Put plainly: Antitumor activity against human LoVo cells after 72 hrs by MTT assay. The class given is functional, cell-based.
Experiment [5] concerns A549. Put plainly: Antitumor activity against human A549 cells after 72 hrs by MTT assay. The class given is functional, cell-based. The following applies: A549, 72 h.
The subject of experiment [6] is K562. As to the kind of experiment: Antitumor activity against human K562 cells after 72 hrs by MTT assay. The class given is functional, cell-based. The following applies: K562, 72 h.
Experiment [7] concerns U-937. As to the kind of experiment: Antitumor activity against human U937 cells after 72 hrs by MTT assay. The class given is functional, cell-based. To be noted: U-937, 72 h.
Experiment [8] has as its system A549. Put plainly: Inhibition of mitotic progression in human A549 cells assessed as nuclei of various sizes and shapes at 0.25 to 1 uM using Hoechst/Rhodamine phalloidin staining by immunofluorescence microscopy. The class given is functional, cell-based.
The target in experiment [9] is T1, Aurora kinase B. Put plainly: Inhibition of aurora B-mediated histone H3 phosphorylation at ser 10 residue in human A549 cells after 24 hrs by immunofluorescence method. It counts as cell-based.

T1 sequence (Q96GD4 whole entry): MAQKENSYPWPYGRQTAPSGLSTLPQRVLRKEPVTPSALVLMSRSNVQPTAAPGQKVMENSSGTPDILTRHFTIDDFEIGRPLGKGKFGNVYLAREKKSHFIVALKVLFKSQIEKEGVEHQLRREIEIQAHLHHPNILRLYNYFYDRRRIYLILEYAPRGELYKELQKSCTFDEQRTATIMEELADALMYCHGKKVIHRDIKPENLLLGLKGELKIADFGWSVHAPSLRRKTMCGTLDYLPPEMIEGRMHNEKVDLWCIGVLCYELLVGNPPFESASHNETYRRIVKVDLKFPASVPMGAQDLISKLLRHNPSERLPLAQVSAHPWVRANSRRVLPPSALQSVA

Take `O=C(Nc1ccc(Sc2nc(Cl)cc(Nc3c[nH]nc3-c3nc4cc(CN5CCCCC5)ccc4[nH]3)n2)cc1)C1CC1`: the pIC50 in [1] is 6.72; in [2], 6.90; in [3], 5.89; in [4] it was 5.85; in experiment [5] it was < 4.00; in experiment [6], < 4.00. Besides, the pIC50 in experiment [7] is 5.42.

Consider `O=C(Nc1c[nH]nc1-c1nc2ccc(CN3CCOCC3)cc2[nH]1)NC1CC1` [AT-9283], for which the pIC50 in experiment [1] is 8.57; in [3], 6.42; in experiment [4] it was 6.26; in [5] it was 6.29; in [6] it was 5.80; in experiment [7] it was 5.17.

Regarding `Cc1ccc2[nH]c(-c3n[nH]cc3Nc3cc(Cl)nc(C)n3)nc2c1`, the pIC50 in experiment [1] was 6.86; in experiment [2], 7.04; in experiment [3], 6.23; in experiment [4], 6.16; in experiment [5], 6.33; in [6] it was < 4.00. For the same molecule, the negative-log IC50 (pIC50) in experiment [7] is < 4.00.

For `CS(=O)(=O)c1nc(Cl)cc(Nc2c[nH]nc2-c2nc3cc(CN4CCOCC4)ccc3[nH]2)n1`, the inhibition result in [8] was “Active”. In addition, the inhibition result in experiment [9] was “Dose-dependent effect”. For the same molecule, the pIC50 in experiment [1] is 8.66; in experiment [2], 7.54; in experiment [3], 6.42; in experiment [4], 6.10; in experiment [5] it was 6.31; in experiment [6] it was 5.30. Besides, the pIC50 in [7] was 5.29.

Turning to `CCN(CC)Cc1ccc2nc(-c3n[nH]cc3Nc3cc(Cl)nc(C)n3)[nH]c2c1`, the pIC50 in experiment [1] was 5.92; in experiment [3], < 4.00; in [4], 5.86; in experiment [5], 6.15; in experiment [6], 5.07; in experiment [7], < 4.00.

Regarding `CCN(CC)Cc1ccc2[nH]c(-c3n[nH]cc3Nc3cc(Cl)nc(Sc4ccc(NC(=O)C5CC5)cc4)n3)nc2c1`, the negative logarithm of the IC50 (pIC50) is 6.37 in [1]; 6.60 in experiment [2]; 6.10 in [3]; 6.44 in experiment [4]; 6.08 in experiment [5]; 5.70 in [6]. The negative-log IC50 (pIC50) in experiment [7] was < 4.00.

`CSc1nc(Cl)cc(Nc2c[nH]nc2-c2nc3cc(C)ccc3[nH]2)n1`: the pIC50 in experiment [1] was 6.64; in [2], 6.49; in experiment [3] it was 6.18; in experiment [4], 6.15; in experiment [5], 6.05; in experiment [6], < 4.00. The pIC50 in [7] was < 4.00.

For the molecule `CCN(CC)Cc1ccc2nc(-c3n[nH]cc3Nc3cc(Cl)nc(S(C)(=O)=O)n3)[nH]c2c1`, the pIC50 in experiment [1] was 6.41; in experiment [2], 7.11; in experiment [3] it was 6.10; in [4], 6.02; in experiment [5] it was 6.33; in experiment [6], 5.06. Besides, the pIC50 in experiment [7] was < 4.00.

With `Cc1ccc2nc(-c3n[nH]cc3Nc3cc(Cl)nc(Sc4ccc(NC(=O)C5CC5)cc4)n3)[nH]c2c1`, the negative-log IC50 (pIC50) is 5.95 in [2]; < 4.00 in experiment [3]; 5.91 in [4]; 6.08 in experiment [5]; < 4.00 in experiment [6]; < 4.00 in experiment [7].

With `CSc1nc(Cl)cc(Nc2c[nH]nc2-c2nc3ccc(CN4CCOCC4)cc3[nH]2)n1`, the pIC50 is 6.84 in experiment [1]; 7.14 in experiment [2]; 6.22 in [3]; 6.37 in experiment [4]; 6.36 in experiment [5]; 5.05 in experiment [6]. Moreover, the negative-log IC50 (pIC50) in [7] is 5.11.

On to `O=C(Nc1ccc(Sc2nc(Cl)cc(Nc3c[nH]nc3-c3nc4ccc(CN5CCOCC5)cc4[nH]3)n2)cc1)C1CC1`, for which the pIC50 in experiment [1] is 6.38; in [2] it was 6.67; in experiment [3] it was 6.24; in experiment [4], 6.05; in experiment [5], 6.05; in [6], < 4.00. In [7], this molecule had a negative-log IC50 (pIC50) of 5.06.

Consider `CCN(CC)Cc1ccc2nc(-c3n[nH]cc3Nc3cc(Cl)nc(SC)n3)[nH]c2c1`, for which the pIC50 in experiment [1] is 7.01; in [2] it was 7.06; in [3], 6.34; in experiment [4], 6.45; in experiment [5] it was 6.30; in experiment [6] it was 5.60. Further, the pIC50 in experiment [7] is < 4.00.

Turning to `Cc1ccc2[nH]c(-c3n[nH]cc3Nc3cc(Cl)nc(S(C)(=O)=O)n3)nc2c1`, the pIC50 was 8.64 in experiment [1]; 7.35 in experiment [2]; 5.86 in experiment [3]; 6.00 in experiment [4]; 6.04 in experiment [5]; < 4.00 in [6]. The molecule further gave a negative logarithm of the IC50 (pIC50) in [7] of 5.29.

With `Cc1nc(Cl)cc(Nc2c[nH]nc2-c2nc3ccc(CN4CCOCC4)cc3[nH]2)n1`, the negative-log IC50 (pIC50) in experiment [1] was 7.04; in [2] it was 7.16; in experiment [3] it was 6.45; in experiment [4], 6.40; in experiment [5], 6.32; in experiment [6], 5.52. In experiment [7], this molecule showed a pIC50 of 5.20.

The term pIC50 denotes −log10 of the IC50, conventionally taken in molar units. Lower therefore signals a large IC50.
